Test results as given in patent publication US12030875B2, “EIF4E inhibitors and uses thereof” (PIC Therapeutics, Inc., priority 2018, dated 2024).
pIC50: −log10 of the molar value.

Molecular target: T1, Human eIF4E (Homo sapiens, UniProt P06730)
T1 construct: Human eIF4E (aa 28-217) with a C-terminal His-tag; made in house
Assay: Human eIF4E/4G2 binding assay (TR-FRET)
Settings: eIF4E (aa 28-217) with biotin labeled 4G2 peptide
Summary of the method: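 His-tagged human eIF4E (aa 28-217), refolded from E. coli inclusion bodies, at 82.5 nM working stock; compounds in 10-point 2-fold DMSO series, preincubated 15 min at RT in 50 mM NaPi pH 6.5, 50 mM KCl, 1 mM DTT. Biotin-4G2 peptide added, 15 min, then Eu-streptavidin/APC-anti-His, 20 min; normalized 665/615 nm TR-FRET signal; IC50 by curve fit.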

T1 sequence (P06730 28-217): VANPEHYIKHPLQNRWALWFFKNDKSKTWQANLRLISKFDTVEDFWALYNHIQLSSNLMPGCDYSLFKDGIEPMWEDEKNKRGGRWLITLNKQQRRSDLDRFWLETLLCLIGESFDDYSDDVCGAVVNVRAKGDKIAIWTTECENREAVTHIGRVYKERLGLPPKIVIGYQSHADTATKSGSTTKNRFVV

O=C(O)CC1CCCN1c1nc(-c2ccc(-c3cnco3)cc2)c(-c2cccnc2)s1 (stereo not drawn) [Compound I-38] was tested, and the pIC50 was < 4.60.
With CC(CC(=O)O)Nc1nc(-c2ccc(-c3cnco3)cc2)c(-c2cncnc2)s1 (stereo not drawn) [Compound I-23] the pIC50 was < 4.60.
For CC(CNc1nc(-c2ccc(Oc3ccccc3)cc2)c(-c2cccnc2)s1)C(=O)O (stereo not drawn) [Compound I-179], the pIC50 was < 4.60.
CC(CC(=O)O)Nc1nc(-c2ccc(-c3ccc(F)cc3)cc2)c(-c2cccc3[nH]ccc23)s1 (stereo not drawn) [Compound I-98] gave a pIC50 of 4.60 to 5.30.
O=C(O)C1CN(c2nc(-c3ccccc3)c(-c3ccc(-c4ccc(F)cc4)cc3)s2)CCO1 (stereo not drawn) [Compound I-240, 4-(5-(4′-fluorobiphenyl-4-yl)-4-phenylthiazol-2-yl) morpholine-2-carboxylic acid] was tested, and the pIC50 was > 5.30.
For CC1(C(=O)O)CN(c2nc(-c3ccc(-c4cnco4)cc3)c(-c3cccc4[nH]ccc34)s2)C1 [Compound I-16], the pIC50 was < 4.60.
CC1(C(=O)O)CN(c2nc(-c3ccc(-c4cnco4)cc3)c(-c3ccccc3)s2)C1 [Compound I-13] was tested, and the pIC50 was < 4.60.
For CC(CNc1nc(-c2cncnc2)c(-c2ccc(-c3ccc(F)cc3)cc2)s1)C(=O)O (stereo not drawn) [Compound I-102], the pIC50 was < 4.60.
O=C(O)C1CCCN(c2nc(-c3ccc(-c4cnco4)cc3)c(-c3cccnc3)s2)C1 (stereo not drawn) [Compound I-33] was tested, and the pIC50 was < 4.60.
With O=C(O)CC1CCCN1c1nc(-c2ccc(Oc3ccccc3)cc2)c(-c2ccccc2)s1 (stereo not drawn) [Compound I-186] the pIC50 was > 5.30.
Compound O=C(O)C1CCN(c2nc(-c3ccc(-c4ccc(F)cc4)cc3)c(-c3cccc4[nH]ccc34)s2)C1 (stereo not drawn) [Compound I-119] has a pIC50 of 4.60 to 5.30.
In the case of CC(C)C(CC(=O)O)Nc1nc(-c2ccc(Oc3ccccc3)cc2)cs1 (stereo not drawn) [Compound I-148], the pIC50 was < 4.60.
In the case of O=C(O)C1(CNc2nc(-c3ccc(Oc4ccccc4)cc3)c(-c3ccccc3)s2)CC1 [Compound I-196], the pIC50 was > 5.30.
Compound O=C(O)C1CN(c2nc(-c3ccc(-c4ccc(F)cc4)cc3)c(C(F)(F)F)s2)CCO1 (stereo not drawn) [Compound I-239] has a pIC50 of 4.60 to 5.30.
With CC1(C(=O)O)CCCN(c2nc(-c3ccc(Oc4ccccc4)cc3)c(-c3ccccc3)s2)C1 (stereo not drawn) [Compound I-217] the pIC50 was > 5.30.
For O=C(O)CC1CCCN1c1nc(-c2ccc(-c3ccc(F)cc3)cc2)c(-c2cccc3[nH]ccc23)s1 (stereo not drawn) [Compound I-114], the pIC50 was > 5.30.
For O=C(O)C1CCN(c2nc(-c3ccc(-c4cnco4)cc3)c(-c3cncnc3)s2)C1 (stereo not drawn) [Compound I-41], the pIC50 was < 4.60.
With O=C(O)C1(CNc2nc(-c3ccc(-c4ccc(F)cc4)cc3)c(-c3cncnc3)s2)CC1 [Compound I-123] the pIC50 was < 4.60.
In the case of O=C(O)C1CN(c2nc(-c3ccc(Oc4ccccc4)cc3)c(-c3ccccc3)s2)CCO1 (stereo not drawn) [Compound I-213], the pIC50 was > 5.30.
For O=C(O)C1CN(c2nc(-c3ccc(Oc4ccccc4)cc3)c(-c3cccc4[nH]ccc34)s2)CCO1 (stereo not drawn) [Compound I-216], the pIC50 was < 4.60.
For CC(C)C(CC(=O)O)Nc1nc(-c2ccc(-c3ccc(F)cc3)cc2)c(-c2cncnc2)s1 (stereo not drawn) [Compound I-67], the pIC50 was < 4.60.
For O=C(O)C1CCN(c2nc(-c3ccc(-c4ccc(F)cc4)cc3)c(-c3ccccc3)s2)CC1 [Compound I-136], the pIC50 was > 5.30.
In the case of O=C(O)C1(CNc2nc(-c3ccc(-c4cnco4)cc3)c(-c3ccccc3)s2)CC1 [Compound I-44], the pIC50 was < 4.60.
With O=C(O)[C@@H]1CCCN(c2nc(-c3ccc(-c4ccc(F)cc4)cc3)c(-c3ccccc3)s2)C1 [Compound I-223] the pIC50 was > 5.30.
CC1(C(=O)O)CCCN(c2nc(-c3ccc(Oc4ccccc4)cc3)c(-c3cccc4[nH]ccc34)s2)C1 (stereo not drawn) [Compound I-220] was tested, and the pIC50 was > 5.30.
O=C(O)C1CCCN(c2nc(-c3ccc(-c4ccc(F)cc4)cc3)c(-c3cccnc3)s2)C1 (stereo not drawn) [Compound I-108] showed a pIC50 of 4.60 to 5.30.
In the case of O=C(O)C1(CNc2nc(-c3ccc(Oc4ccccc4)cc3)cs2)CC1 [Compound I-195], the pIC50 was < 4.60.
With O=C(O)C1CC(CNc2nc(-c3ccc(-c4ccc(F)cc4)cc3)c(Br)s2)C1 (stereo not drawn) [Compound I-127] the pIC50 was 4.60 to 5.30.
O=C(O)C1CCN(c2nc(-c3ccc(Oc4ccccc4)cc3)c(-c3cncnc3)s2)CC1 [Compound I-210] was tested, and the pIC50 was < 4.60.
For CC1(C(=O)O)CN(c2nc(-c3ccc(-c4cnco4)cc3)c(-c3cccnc3)s2)C1 [Compound I-15], the pIC50 was < 4.60.
In the case of CC(C)C(CC(=O)O)Nc1nc(-c2cncnc2)c(-c2ccc(-c3cnco3)cc2)s1 (stereo not drawn) [Compound I-2], the pIC50 was < 4.60.
With CC1(C(=O)O)CN(c2nc(-c3ccc(-c4ccc(F)cc4)nc3)c(-c3cncnc3)s2)C1 [Compound I-84] the pIC50 was < 4.60.
Work on CC(CNc1nc(-c2ccc(Oc3ccccc3)cc2)c(-c2ccccc2)s1)C(=O)O (stereo not drawn) [Compound I-177] yielded a pIC50 of 4.60 to 5.30.
With CC(CC(=O)O)Nc1nc(-c2ccc(Oc3ccccc3)cc2)c(-c2cncnc2)s1 (stereo not drawn) [Compound I-173] the pIC50 was < 4.60.
In the case of CC(C)C(CC(=O)O)Nc1nc(-c2ccc(Oc3ccccc3)cc2)c(-c2ccccc2)s1 (stereo not drawn) [Compound I-149], the pIC50 was 4.60 to 5.30.
CC1(C(=O)O)CCCN(c2nc(-c3ccc(-c4ccc(F)cc4)cc3)c(-c3cncnc3)s2)C1 (stereo not drawn) [Compound I-145] was tested, and the pIC50 was < 4.60.
In the case of O=C(O)C1CCCN(c2nc(-c3ccc(-c4ccc(F)cc4)cc3)c(-c3cncnc3)s2)C1 (stereo not drawn) [Compound I-107], the pIC50 was < 4.60.
CCCC(CNc1nc(-c2ccc(Oc3ccccc3)cc2)c(-c2cccc3[nH]ccc23)s1)C(=O)O (stereo not drawn) [Compound I-171] showed a pIC50 of 4.60 to 5.30.
With O=C(O)C1COCCN1c1nc(-c2ccc(-c3ccc(F)cc3)cc2)c(-c2ccccc2)s1 (stereo not drawn) [Compound I-231] the pIC50 was > 5.30.
In the case of CC(CNc1nc(-c2ccc(-c3ccc(F)cc3)cc2)c(-c2ccccc2)s1)C(=O)O (stereo not drawn) [Compound I-101], the pIC50 was 4.60 to 5.30.
Compound CCCC(CNc1nc(-c2ccc(-c3ccc(F)cc3)cc2)c(-c2cccc3[nH]ccc23)s1)C(=O)O (stereo not drawn) [Compound I-92] has a pIC50 of 4.60 to 5.30.
CC(CC(=O)O)Nc1nc(-c2ccc(-c3ccc(F)cc3)cc2)c(-c2cccnc2)s1 (stereo not drawn) [Compound I-97] was tested, and the pIC50 was < 4.60.
Work on CC1(C(=O)O)CCCN(c2nc(-c3ccc(-c4ccc(F)cc4)cc3)c(-c3cccnc3)s2)C1 (stereo not drawn) [Compound I-146] yielded a pIC50 of 4.60 to 5.30.
In the case of CCCC(CNc1nc(-c2cccnc2)c(-c2ccc(-c3cnco3)cc2)s1)C(=O)O (stereo not drawn) [Compound I-20], the pIC50 was < 4.60.
With O=C(O)C1CCN(c2nc(-c3ccc(-c4ccc(F)cc4)cc3)c(-c3cccnc3)s2)CC1 [Compound I-138] the pIC50 was 4.60 to 5.30.
In the case of O=C(O)C[C@H]1CCCN1c1nc(-c2ccc(-c3ccc(F)cc3)cc2)c(-c2ccccc2)s1 [Compound I-225], the pIC50 was > 5.30.
CC(C)C(CC(=O)O)Nc1nc(-c2ccc(-c3ccc(F)cc3)cc2)c(-c2cccc3[nH]ccc23)s1 (stereo not drawn) [Compound I-69] showed a pIC50 of 4.60 to 5.30.
For O=C(O)C1CCCN(c2nc(-c3ccc(-c4cnco4)cc3)c(-c3cncnc3)s2)C1 (stereo not drawn) [Compound I-32], the pIC50 was < 4.60.
